Measured values: patent publication US20220324862A1, “PYRIDOPYRIMIDINONE COMPOUNDS” (Acerand Therapeutics (USA) Limited, priority 2021, published 2022)

Target: T1, protein-protein interaction between SOS1 and KRAS-G12D (Homo sapiens, UniProt Q07889)
T1 construct: The purified GST-SOS1 catalytic domain (residues 564-1049) was first diluted in assay buffer; made in house; host or cells: E. coli BL21 (DE3) for SOS1; E. coli BL21 carrying a BirA plasmid for KRAS-G12D
T1 sequence (Q07889 564-1049): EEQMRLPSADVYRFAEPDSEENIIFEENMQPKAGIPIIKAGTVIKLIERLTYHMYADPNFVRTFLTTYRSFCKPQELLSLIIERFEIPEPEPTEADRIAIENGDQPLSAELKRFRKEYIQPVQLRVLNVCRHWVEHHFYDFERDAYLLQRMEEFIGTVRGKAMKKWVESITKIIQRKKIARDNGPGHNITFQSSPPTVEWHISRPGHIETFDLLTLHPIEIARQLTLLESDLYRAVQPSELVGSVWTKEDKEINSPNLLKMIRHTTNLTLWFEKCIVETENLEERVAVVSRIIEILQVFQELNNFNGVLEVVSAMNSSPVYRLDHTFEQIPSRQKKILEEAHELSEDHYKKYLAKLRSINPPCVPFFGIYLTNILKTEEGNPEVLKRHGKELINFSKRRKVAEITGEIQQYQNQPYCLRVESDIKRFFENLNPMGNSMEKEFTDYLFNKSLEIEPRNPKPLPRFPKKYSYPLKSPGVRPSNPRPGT
Assay: HTRF Based Protein-Protein Interaction Assay
Format: binding
Conditions: HTRF; GST-SOS1 2.5 nM, KRAS-G12D 100 nM, GDP 10 uM; read-out: IC50 value, inhibition of SOS1/KRAS-G12D protein-protein interaction
Method in brief: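 GST-SOS1 (residues 564-1049, 2.5 nM) preincubated 15 min at 25° C with compound (0.5 nM-10 μM, 3-fold), then biotinylated avi-KRAS-G12D (1-169, 100 nM) with 10 uM GDP added for 60 min. HTRF read after 5 h with anti-GST-Tb cryptate/streptavidin-XL665; buffer HEPES pH 7.5, Brij-35, TCEP, BSA.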

IC50	SMILES
< 100 nM	C#C[C@@H](Nc1nc(C)nc2cc(=O)n(C3CCOCC3)cc12)c1cccc(C(F)(F)F)c1C [Compound 4, (R)-2-methyl-4-((1-(2-methyl-3-(trifluoromethyl)phenyl)prop-2-yn-1-yl)amino)-6-(tetrahydro-2H-pyran-4-yl)pyrido[4,3-d]pyrimidin-7(6H)-one]
< 100 nM	C#C[C@@H](Nc1ncnc2c1cc(C1(O)CCN(C(C)=O)CC1)c(=O)n2C)c1cccc(C(F)F)c1F [Compound 46, 6-(1-acetyl-4-hydroxypiperidin-4-yl)-4-{[(1R)-1-[3-(difluoromethyl)-2-fluorophenyl]prop-2-yn-1-yl]amino}-8-methyl-7H,8H-pyrido[2,3-d]pyrimidin-7-one]
< 100 nM	C#C[C@@H](Nc1nc(C)nc2c1cc(C1(F)CCN(C(C)=O)CC1)c(=O)n2C)c1cccc(C(F)(F)F)c1C [Compound 56, 6-(1-acetyl-4-fluoropiperidin-4-yl)-2,8-dimethyl-4-{[(1R)-1-[2-methyl-3-(trifluoromethyl)phenyl]prop-2-yn-1-yl]amino}-7H,8H-pyrido[2,3-d]pyrimidin-7-one]
100 to 200 nM	C#C[C@@H](Nc1ncnc2c1cc(C1(NC(C)=O)CCOCC1)c(=O)n2C)c1cccc(C(F)(F)F)c1C [Compound 58, (R)-N-(4-(8-methy-4-((1-(2-methyl-3-(trifluoromethyl)phenyl)prop-2-yn-1-yl}amino)-7-oxo-7,8-dihydropyrido[2,3-d]pyrimidin-6-yl)tetrahydro-2H-pyran-4-yl)acetamide]
< 100 nM	C#C[C@@H](Nc1ncnc2c1cc(C1(NC(C)=O)CCN(C(C)=O)CC1)c(=O)n2C)c1cccc(C(F)(F)F)c1C [Compound 57, (R)-N-(1-acetyl-4-(8-methy-4-((1-(2-methyl-3-(trifluoromethyl)phenyl)prop-2-yn-1-yl)amino)-7-oxo-7,8-dihydropyrido[2,3-d]pyrimidin-6-yl)piperidin-4-yl)acetamide]
100 to 200 nM	C#C[C@@H](Nc1ncnc2c1cc(C1(O)CCN(C(C)=O)C1)c(=O)n2C)c1cccc(C(F)F)c1F (stereo partly drawn) [Compound 43, 6-(1-acetyl-3-hydroxypyrrolidin-3-yl)-4-{[(1R)-1-[3-(difluoromethyl)-2-fluorophenyl]prop-2-yn-1-yl]amino}-8-methyl-7H,8H-pyrido[2,3-d]pyrimidin-7-one]
< 100 nM	C#C[C@@H](Nc1ncnc2c1cc(C1(OC)CCN(C(C)=O)C1)c(=O)n2C)c1cccc(C(F)F)c1F (stereo partly drawn) [Compound 49, 6-(1-acetyl-3-methoxypyrrolidin-3-yl)-4-{[(1R)-1-[3-(difluoromethyl)-2-fluorophenyl]prop-2-yn-1-yl]amino}-8-methyl-7H,8H-pyrido[2,3-d]pyrimidin-7-one]
< 100 nM	C#C[C@@H](Nc1nc(C)nc2c1cc(C1(O)CCN(C(C)=O)CC1)c(=O)n2C)c1cccc(C(F)(F)F)c1C [Compound 54, 6-(1-acetyl-4-hydroxypiperidin-4-yl)-2,8-dimethyl-4-{[(1R)-1-[2-methyl-3-(trifluoromethyl)phenyl]prop-2-yn-1-yl]amino}-7H,8H-pyrido[2,3-d]pyrimidin-7-one]
< 100 nM	C#C[C@@H](Nc1nc(C)nc2c1cc(C1(OC)CCN(C(C)=O)CC1)c(=O)n2C)c1cccc(C(F)(F)F)c1C [Compound 55, 6-(1-acetyl-4-methoxypiperidin-4-yl)-2,8-dimethyl-4-{[(1R)-1-[2-methyl-3-(trifluoromethyl)phenyl]prop-2-yn-1-yl]amino}-7H,8H-pyrido[2,3-d]pyrimidin-7-one]
< 100 nM	C#C[C@@H](Nc1nc(C)nc2cc(=O)n(C3(C(F)F)CC3)cc12)c1cccc(C(F)(F)F)c1C [Compound 9, (R)-6-(1-(difluoromethyl)cyclopropyl)-2-methyl-4-((1-(2-methyl-3-(trifluoromethyl)phenyl)prop-2-yn-1-yl)amino)pyrido[4,3-d]pyrimidin-7(6H)-one]
100 to 200 nM	C#C[C@@H](Nc1ncnc2c1cc(C1(OC)CCN(C(C)=O)CC1)c(=O)n2C)c1cccc(C(F)F)c1F [Compound 48, (R)-6-(1-acetyl-4-methoxypiperidin-4-yl)-4-((1-(3-(difluoromethyl)-2-fluorophenyl)prop-2-yn-1-yl)amino)-8-methylpyrido[2,3-d]pyrimidin-7(8H)-one]
